Key:
[1] = target: FGFR2 (Homo sapiens (Human), UniProt P21802); test: FGFR2 Biochemical Caliper Assay
Protocol: Compounds of the present invention were also tested in a FGFR2 Biochemical Caliper Assay. Compounds were prepared in 10 mM DMSO solution and serially diluted into 11 concentrations by 3-fold dilution. […] 5 uL of ATP solution (100 uM) was added to start the reaction and the plate was incubated for 90 minutes, then 70 uL of stopping buffer (0.5M EDTA) was added to terminate the reaction. Each well was analyzed using EZ reader.

[2] = tested on: SNU16 cells; test: SNU16 Cancer Cell Line Proliferation Assay; type: cell-based; conditions: Homo sapiens; SNU-16 cells
In short: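 Proliferation read-out: CellTiter Glo chemiluminescence after 96 h compound exposure. Test compounds, serially diluted 3-fold over 11 points from a 10 mM DMSO stock, were added to SNU16 cells plated 24 h earlier at 37 degrees.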

Sequence of FGFR2 (P21802 22-821): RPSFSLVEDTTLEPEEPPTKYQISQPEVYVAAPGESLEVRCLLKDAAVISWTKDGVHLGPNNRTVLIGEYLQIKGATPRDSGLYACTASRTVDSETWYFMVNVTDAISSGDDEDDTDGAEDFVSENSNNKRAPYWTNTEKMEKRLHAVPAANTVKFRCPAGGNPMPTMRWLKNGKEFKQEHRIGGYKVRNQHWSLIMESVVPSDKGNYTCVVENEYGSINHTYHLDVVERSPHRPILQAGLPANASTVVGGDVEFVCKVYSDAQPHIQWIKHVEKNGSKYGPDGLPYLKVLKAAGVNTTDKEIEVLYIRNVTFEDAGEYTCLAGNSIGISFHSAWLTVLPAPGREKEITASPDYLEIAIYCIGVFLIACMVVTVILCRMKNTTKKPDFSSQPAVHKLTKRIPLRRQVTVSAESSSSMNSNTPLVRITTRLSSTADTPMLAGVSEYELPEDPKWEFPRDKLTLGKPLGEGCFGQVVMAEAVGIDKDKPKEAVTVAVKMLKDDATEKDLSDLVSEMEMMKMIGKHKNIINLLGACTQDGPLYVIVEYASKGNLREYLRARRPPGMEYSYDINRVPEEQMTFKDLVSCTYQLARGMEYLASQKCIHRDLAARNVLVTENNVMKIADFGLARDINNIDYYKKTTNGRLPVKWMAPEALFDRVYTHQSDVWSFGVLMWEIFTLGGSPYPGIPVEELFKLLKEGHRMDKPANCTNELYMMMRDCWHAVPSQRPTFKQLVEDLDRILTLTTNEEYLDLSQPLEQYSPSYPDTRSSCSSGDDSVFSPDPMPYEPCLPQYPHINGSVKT

Row | Structure (SMILES) | IC50 [1] [nM] | IC50 [2] [nM]
1 | C=C(C)C(=O)Nc1ccc(-c2c(-c3ccc(C(=O)Nc4ncccn4)cc3)c3c(N)ncnc3n2C)cc1 [Example 257] | 250 to 1000 | 250 to 1000
2 | C=C(C)C(=O)Nc1ccc(-c2c(-c3ccc(C(=O)N4CC5CCC4C5)cc3)c3c(N)ncnc3n2C)cc1 (centres unmarked) [Example 258] | < 100 | ≤ 100
3 | C=CC(=O)Nc1ccc(-c2c(-c3ccc(Cn4nc(C)cc4C)cc3)c3c(N)ncnc3n2C)cc1 [Example 260] | < 100 | ≤ 100
4 | C=C(C)C(=O)Nc1ccc(-c2c(-c3ccc(C(=O)N4CC5CCC4CC5)cc3)c3c(N)ncnc3n2C)cc1 [Example 262] | < 100 | ≤ 100
5 | C=C(C)C(=O)Nc1ccc(-c2c(-c3ccc(Cn4cc(C)cn4)cc3)c3c(N)ncnc3n2C)cc1 [Example 263] | 1000 to 100000 | 250 to 1000
6 | C=C(C)C(=O)Nc1ccc(-c2c(-c3ccc(C(=O)N4CCCC5(CC5)C4)cc3)c3c(N)ncnc3n2C)cc1 [Example 264] | 100 to 250 | ≤ 100
7 | C=C(C)C(=O)Nc1ccc(-c2c(-c3ccc(C(=O)NC4CCC4)cc3)c3c(N)ncnc3n2C)cc1 [Example 265] | < 100 | ≤ 100
8 | C=C(C)C(=O)Nc1ccc(-c2c(-c3ccc(Cn4nccc4C)cc3)c3c(N)ncnc3n2C)cc1 [Example 266] | 1000 to 100000 | 250 to 1000
9 | C=C(C)C(=O)Nc1ccc(-c2c(-c3ccc(Oc4ccn(C)n4)cc3)c3c(N)ncnc3n2C)cc1 [Example 267] | < 100 | ≤ 100
10 | C=C(C)C(=O)Nc1ccc(-c2c(-c3ccc(C(=O)N(C)Cc4nc(C)no4)cc3)c3c(N)ncnc3n2C)cc1 [Example 270] | 250 to 1000 | 250 to 1000
11 | C=C(C)C(=O)Nc1ccc(-c2c(-c3ccc(C(=O)N4CC5CC4C5)cc3)c3c(N)ncnc3n2C)cc1 [Example 272] | < 100 | ≤ 100
12 | C=C(C)C(=O)Nc1ccc(-c2c(-c3ccc(Cn4ccc(C)n4)cc3)c3c(N)ncnc3n2C)cc1 [Example 274] | 100 to 250 | 250 to 1000
13 | C=CC(=O)Nc1ccc(-c2c(-c3ccc(Oc4ccn(C)n4)cc3)c3c(N)ncnc3n2C)cc1 [Example 276] | < 100 | ≤ 100
14 | C=C(C)C(=O)Nc1ccc(-c2c(-c3ccc(C(=O)NCc4ncon4)cc3)c3c(N)ncnc3n2C)cc1 [Example 282] | 100 to 250 | 250 to 1000
15 | C=C(C)C(=O)Nc1ccc(-c2c(-c3ccc(C(=O)NC4CCOC4)cc3)c3c(N)ncnc3n2C)cc1 (centres unmarked) [Example 283] | < 100 | ≤ 100
16 | C=C(C)C(=O)Nc1ccc(-c2c(-c3ccc(C(=O)NCC(C)(C)O)cc3)c3c(N)ncnc3n2C)cc1 [Example 288] | < 100 | 250 to 1000
17 | C=C(C)C(=O)Nc1ccc(-c2c(-c3ccc(C(=O)NC4COC4)cc3)c3c(N)ncnc3n2C)cc1 [Example 289] | 250 to 1000 | 250 to 1000
18 | C=C(C)C(=O)Nc1ccc(-c2c(-c3ccc(C(=O)N[C@@H](CO)C4CC4)cc3)c3c(N)ncnc3n2C)cc1 [Example 290] | < 100 | 100 to 250
19 | C=C(C)C(=O)Nc1ccc(-c2c(-c3ccc(C(=O)N4CC5CCC5C4)cc3)c3c(N)ncnc3n2C)cc1 (centres unmarked) [Example 291] | < 100 | ≤ 100
20 | C=C(C)C(=O)Nc1ccc(-c2c(-c3ccc(C(=O)N4CCCC[C@@H]4C)cc3)c3c(N)ncnc3n2C)cc1 [Example 292] | < 100 | ≤ 100
21 | C=C(C)C(=O)Nc1ccc(-c2c(-c3ccc(C(=O)N4CCCC[C@H]4C)cc3)c3c(N)ncnc3n2C)cc1 [Example 293] | < 100 | ≤ 100
22 | C=C(C)C(=O)Nc1ccc(-c2c(-c3ccc(C(=O)N(C)Cc4cnn(C)c4)cc3)c3c(N)ncnc3n2C)cc1 [Example 294] | 1000 to 100000 | 250 to 1000

Row | Structure (SMILES) | IC50 [1] [nM] | IC50 [2] [nM]
23 | C=C(C)C(=O)Nc1ccc(-c2c(-c3ccc(C(=O)Nc4ncon4)cc3)c3c(N)ncnc3n2C)cc1 [Example 295] | 1000 to 100000 | 250 to 1000
24 | C=CC(=O)Nc1ccc(-c2c(C3=CCC(C(=O)N(C)C)CC3)c3c(N)ncnc3n2C)cc1 (centres unmarked) [Example 296] | < 100 | ≤ 100
25 | C=CC(=O)Nc1ccc(-c2c(C3=CCC(C(=O)N4CCCC4)CC3)c3c(N)ncnc3n2C)cc1 (centres unmarked) [Example 297] | < 100 | ≤ 100
26 | C=CC(=O)Nc1ccc(-c2c(C3=CCC(C(=O)NC4CCCC4)CC3)c3c(N)ncnc3n2C)cc1 (centres unmarked) [Example 298] | < 100 | ≤ 100
27 | C=C(C)C(=O)Nc1ccc(-c2c(-c3ccc(C(=O)N4CC5CCC(C5)C4)cc3)c3c(N)ncnc3n2C)cc1 [Example 299] | < 100 | ≤ 100
28 | C=C(C)C(=O)Nc1ccc(-c2c(-c3ccc(C(=O)N[C@@H]4CCOC4)cc3)c3c(N)ncnc3n2C)cc1 [Example 300] | < 100 | ≤ 100
29 | C=C(C)C(=O)Nc1ccc(-c2c(-c3ccc(S(=O)(=O)NC4COC4)cc3)c3c(N)ncnc3n2C)cc1 [Example 301] | 1000 to 100000 | 250 to 1000
30 | C=CC(=O)Nc1ccc(-c2c(C3CCC(C(=O)NC)CC3)c3c(N)ncnc3n2C)cc1 (centres unmarked) [Example 302] | 1000 to 100000 | 250 to 1000
31 | C=C(C)C(=O)Nc1ccc(-c2c(-c3ccc(S(=O)(=O)NCC(C)C)cc3)c3c(N)ncnc3n2C)cc1 [Example 303] | 250 to 1000 | 250 to 1000
32 | C=C(C)C(=O)Nc1ccc(-c2c(-c3ccc(C(=O)N(C)CC(F)(F)F)cc3)c3c(N)ncnc3n2C)cc1 [Example 304] | < 100 | ≤ 100
33 | C=C(C)C(=O)Nc1ccc(-c2c(-c3ccc(C(=O)NCC(F)F)cc3)c3c(N)ncnc3n2C)cc1 [Example 305] | < 100 | ≤ 100
34 | C=C(C)C(=O)Nc1ccc(-c2c(-c3ccc(C(=O)NCC(C)(C)OC)cc3)c3c(N)ncnc3n2C)cc1 [Example 306] | < 100 | ≤ 100
35 | C=C(C)C(=O)Nc1ccc(-c2c(-c3ccc(C(=O)NCC(C)C)cc3)c3c(N)ncnc3n2C)cc1 [Example 307] | < 100 | ≤ 100
36 | C=C(C)C(=O)Nc1ccc(-c2c(-c3ccc(C(=O)NC4CCCC4O)cc3)c3c(N)ncnc3n2C)cc1 (centres unmarked) [Example 308] | < 100 | 100 to 250
37 | C=C(C)C(=O)Nc1ccc(-c2c(-c3ccc(S(=O)(=O)NC4CCCC4O)cc3)c3c(N)ncnc3n2C)cc1 (centres unmarked) [Example 309] | 1000 to 100000 | 250 to 1000
38 | C=C(C)C(=O)Nc1ccc(-c2c(-c3ccc(S(=O)(=O)NCC(C)(C)O)cc3)c3c(N)ncnc3n2C)cc1 [Example 310] | 1000 to 100000 | 250 to 1000
39 | C=C(C)C(=O)Nc1ccc(-c2c(-c3ccc(S(=O)(=O)NC4CCC4)cc3)c3c(N)ncnc3n2C)cc1 [Example 311] | 250 to 1000 | 250 to 1000
40 | C=C(C)C(=O)Nc1ccc(-c2c(-c3ccc(S(=O)(=O)N(C)C4CCCC4)cc3)c3c(N)ncnc3n2C)cc1 [Example 312] | 250 to 1000 | 250 to 1000
41 | C=C(C)C(=O)Nc1ccc(-c2c(-c3ccc(-c4ncco4)nc3)c3c(N)ncnc3n2C)cc1 [Example 313] | 1000 to 100000 | 250 to 1000
42 | C=C(C)C(=O)Nc1ccc(-c2c(-c3ccc(S(=O)(=O)CC4CCCC4)cc3)c3c(N)ncnc3n2C)cc1 [Example 314] | 250 to 1000 | 250 to 1000
43 | C=C(C)C(=O)Nc1ccc(-c2c(-c3ccc(S(=O)(=O)CCC(F)(F)F)cc3)c3c(N)ncnc3n2C)cc1 [Example 315] | 250 to 1000 | 250 to 1000

Reference: patent publication US11780845B2 (Relay Therapeutics, Inc., priority 2019, dated 2023)
